Results: patent US8648105B2, “Diarylthiohydantoin compounds” (The Regents of the University of California, priority 2006, dated 2014)
Entries after “also recorded” stand apart in the source; their conditions may differ.

Columns and labels:
3T3 = test: Growth effect on 3T3 cells; format: cell-based; conditions: 3T3 normal mouse fibroblast cell line
[1] = Pharmacokinetics, drug concentration in mouse serum/plasma by HPLC; conditions: in vivo
Description: Mice were divided into groups of three for each time points. Two mice were not treated with drug and two other mice were treated with vehicle solution. Each group was treated with 10 mg per kilogram of body weight.
The drug was dissolved in a mixture 1:5:14 of DMSO:PEG400: H20. (Vehicle solution) and was administered into mice through the tail vein. The animals are warmed under a heat lamp for approximately 20 minutes prior to treatment to dilate their tail vein. […] After drug administration, the animals were euthanized via CO2 inhalation at different timepoints: 5 nm, 30 nm, 2 h, 6 h, 16 h. Animals were immediately bleed after exposure to CO2 via cardiac puncture (1 ml BD syringe+27 G ⅝ needle).
The samples for HPLC analysis were prepared according to the following procedure:
Blood cells were separated from serum by centrifugation.
To 400 μl of serum were added 80 μl of a 10 μM solution of an internal standard and 520 μl of acetonitrile. Precipitation occurred.
The mixture was vortexed for 3 minutes and then placed under ultrasound for 30 minutes.
The solid particles were filtered off or were separated by centrifugation.
The filtrate was dried under an argon flow to dryness.

MCF7 = test: Growth effect on MCF7 cells; format: cell-based; conditions: MCF7 breast cancer cells
AR [2] = biological target: T1, AR (Homo sapiens, UniProt P10275); format: cell-based; design: Fold induction, AR response reporter; conditions: AR over expressed LNCaP, absence of R1881
T1 sequence (P10275 1-920): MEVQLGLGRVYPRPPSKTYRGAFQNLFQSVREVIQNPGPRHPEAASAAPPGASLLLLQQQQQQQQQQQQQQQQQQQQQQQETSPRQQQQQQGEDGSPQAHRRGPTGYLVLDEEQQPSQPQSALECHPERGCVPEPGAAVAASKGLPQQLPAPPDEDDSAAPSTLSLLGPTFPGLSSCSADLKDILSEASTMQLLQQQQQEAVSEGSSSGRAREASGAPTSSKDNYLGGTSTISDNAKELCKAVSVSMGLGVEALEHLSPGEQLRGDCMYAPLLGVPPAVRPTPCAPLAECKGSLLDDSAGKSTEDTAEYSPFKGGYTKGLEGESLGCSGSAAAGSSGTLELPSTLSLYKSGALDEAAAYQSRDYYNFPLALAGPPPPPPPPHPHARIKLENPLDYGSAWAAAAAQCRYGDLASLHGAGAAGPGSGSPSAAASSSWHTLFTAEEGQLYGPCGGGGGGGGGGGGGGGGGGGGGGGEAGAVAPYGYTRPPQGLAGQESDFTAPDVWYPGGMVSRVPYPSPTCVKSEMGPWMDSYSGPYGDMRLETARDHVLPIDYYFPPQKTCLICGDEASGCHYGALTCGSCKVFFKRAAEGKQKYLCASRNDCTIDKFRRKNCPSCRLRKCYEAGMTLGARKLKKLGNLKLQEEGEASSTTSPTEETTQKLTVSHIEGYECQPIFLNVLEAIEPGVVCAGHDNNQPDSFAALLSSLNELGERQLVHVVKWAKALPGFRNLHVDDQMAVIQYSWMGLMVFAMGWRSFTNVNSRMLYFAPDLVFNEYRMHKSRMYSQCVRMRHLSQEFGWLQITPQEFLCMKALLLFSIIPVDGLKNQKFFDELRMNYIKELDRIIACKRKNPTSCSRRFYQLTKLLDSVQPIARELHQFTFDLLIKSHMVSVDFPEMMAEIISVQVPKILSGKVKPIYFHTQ

AR [3] = format: cell-based; conditions: FIG. 24
Description: The compounds were subjected to tests using an artificial AR response reporter system in a hormone refractory prostate cancer cell line. […] After two days of incubation, reporter activities were assayed.

SkBr3 = test: Growth effect on SkBr3 cells; format: cell-based; conditions: SkBr3 breast cancer cells
AR [4] = biological target: T1, AR; format: cell-based; design: Fold induction, AR response reporter
Description: It is well established that PSA levels are indicators of AR activities in prostate cancer. […] The LNCaP-AR cells are a line of lymph node carcinoma of prostate cells transduced with a plasmid that makes express androgen receptors. […] After four days incubation, secreted PSA levels were assayed using PSA ELISA kits (American Qualex, San Clemente, Calif.)

AR [5] = biological target: T1, AR; format: cell-based; design: Fold induction, AR response reporter; conditions: LN-AR, absence of R1881
Description: Activities of AR response reporter were measured.

DU-145 cells = test: MTS growth assay in DU-145 cells; format: cell-based; conditions: DU-145, lacks AR expression
[6] = biological target: T2, glucocorticoid receptor (GR) (Homo sapiens, UniProt P04150); test: GR response reporter in LNCaP cells over expressing glucocorticoid receptor; format: cell-based
T2 construct: expressed in transfected cells; host or cells: LNCaP cells
T2 sequence (P04150 1-777): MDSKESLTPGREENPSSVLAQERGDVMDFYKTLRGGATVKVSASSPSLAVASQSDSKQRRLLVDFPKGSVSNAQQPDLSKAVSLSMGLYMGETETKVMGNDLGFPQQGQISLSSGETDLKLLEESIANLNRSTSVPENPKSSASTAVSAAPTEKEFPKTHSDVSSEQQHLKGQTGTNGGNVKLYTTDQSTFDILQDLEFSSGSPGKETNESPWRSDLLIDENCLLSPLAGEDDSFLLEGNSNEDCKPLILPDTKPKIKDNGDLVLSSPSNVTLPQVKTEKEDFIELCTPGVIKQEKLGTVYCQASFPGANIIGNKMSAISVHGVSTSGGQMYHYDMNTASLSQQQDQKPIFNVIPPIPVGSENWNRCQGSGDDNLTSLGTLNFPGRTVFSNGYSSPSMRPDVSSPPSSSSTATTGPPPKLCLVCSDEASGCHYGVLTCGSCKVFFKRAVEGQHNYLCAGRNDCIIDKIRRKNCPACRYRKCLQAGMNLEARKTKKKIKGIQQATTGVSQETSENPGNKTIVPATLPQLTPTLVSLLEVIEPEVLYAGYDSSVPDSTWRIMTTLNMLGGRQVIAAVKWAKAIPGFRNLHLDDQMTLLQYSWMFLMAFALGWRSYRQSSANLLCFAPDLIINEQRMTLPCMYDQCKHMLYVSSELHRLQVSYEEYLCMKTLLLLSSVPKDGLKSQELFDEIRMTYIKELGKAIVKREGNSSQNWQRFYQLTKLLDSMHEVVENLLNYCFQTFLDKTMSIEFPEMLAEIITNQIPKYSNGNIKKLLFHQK

[7] = test system: LNCaP hormone sensitive xenograft; test: LNCaP hormone sensitive xenograft model
Description: Each set included 6 mice. The mice were treated with 10 mg/kg per day.

urogenital tract = test: Luciferase transgenic mice with testosterone pellet, urogenital tract weight and photon emission (FIG. 22); format: in vivo; conditions: castrated mice with testosterone pellet, 10 mg/kg per day, 14 days
Description: FIG. 22 presents results of an experiment conducted with wild type nontransgenic mice (WT), castrated luciferase transgenic mice (Cast), and non-castrated luciferase transgenic mice (Intact). Data are shown for castrated luciferase transgenic mice treated with an implanted testosterone pellet yielding 12.5 mg per kilogram body weight with a 90 day release period (T/Cast), and data are shown for non-castrated luciferase transgenic mice treated with an implanted testosterone pellet yielding 12.5 mg per kilogram body weight with a 90 day release period (Intact+T). […]. (A) Urogenital tract weight at 14 days. (B) Photon emission rate at 14 days. In all cases, a hormone refractory disease state was not induced.
[…]. Moreover, the higher the dose, the lower the PSA level. […]. The weight and rate of photon emission increased for both intact and castrated mice.

[8] = test system: hormone refractory LAPC4 xenograft; test: Hormone refractory LAPC4 xenograft model; format: in vivo, mice
Description: Compounds of the invention are also tested in another xenograft model of hormone refractory prostate cancer, hormone refractory LAPC4. This model was established from passaging of hormone sensitive prostate cancer in castrated mice, which mimics the clinical progression of prostate cancer (2). […].

[9] = test system: AR-overexpressed LNCaP xenograft tumors; test: AR-overexpressed LNCaP xenograft model in castrated SCID mice; format: in vivo
Description: FIG. 7 is a graph of tumor size. AR overexpressing LNCaP cells were injected in the flanks of castrated SCID mice, subcutaneously. When tumors reached about 100 cubic mm, they were randomized into five groups. Each group had nine animals. […]. The tumors were measured three-dimensionally, width, length and depth, using a caliper.
FIG. 8 depicts experimental results of tumor size. At day 18, the animals were imaged via an optical CCD camera, 3 hours after last dose of treatment. A ROI was drawn over the tumor for luciferase activity measurement in photon/second. The right panels is a representation of the ROIs measurements.
Compounds of the invention are used to examine if the diaryihydantoin derivatives have in vivo effects on hormone refractory prostate cancer. First we examine this compound on xenograft tumors established from AR-overexpressed LNCaP cells. Engineered cells in Matrigel (Collaborative Biomedical) are injected subcutaneously into the flanks of the castrated male SCID mice. Tumor size is measured weekly in three dimensions using calipers. After xenograft tumors established (tumor size at least 40 mm^3), mice with tumors are randomized and treated with different doses of compounds orally once daily. The inhibitory effect on growth of AR-overexpressed LNCaP xenograft model is studied as follows. Mice with established LN-AR xenograft tumors are randomized and treated with indicated compounds orally once daily. Tumor size are measured by caliber.
All animal experiments were performed in compliance with the guidelines of the Animal Research Committee of the University of California at Los Angeles. Animals were bought from Taconic and maintained in a laminar flow tower in a defined flora colony. LNCaP-AR and LNCaP-vector cells were maintained in RPMI medium supplemented with 10% FBS. 10^6 cells in 100 μl of 1:1 Matrigel to RPMI medium were injected subcutaneously into the flanks of intact or castrated male SCID mice. Tumor size was measured weekly in three dimensions (length×width×depth) using calipers. Mice were randomized to treatment groups when tumor size reached approximately 100 mm^3. Drugs were given orally every day at 10 mg/kg and 50 mg/kg. To obtain pharmacodynamic readout, the animals were imaged via an optical CCD camera, 3 hours after last dose of the treatment. A ROI is drawn over the tumor for luciferase activity measurement in photon/second. The right panels were a representation of the ROIs measurements. […]

LogP = format: physicochemical
4AR cell line = test: Luciferase activity in the 4AR cell line; format: cell-based; conditions: 1.25 to 10 μmol
Text: (§1) NC4 differs from NC3 only in that an amino group is substituted for a hydroxyl group. […] The effect of NC3 and NC4 on luciferase activity in the 1AR cell line was studied by administering various compounds at concentrations ranging from 1.25 to 10 μmol and observing PSA levels. […] The effect of NC3 and NC4 on luciferase activity in the 4AR cell line was studied by administering various compounds at concentrations ranging from 1.25 to 10 μmol and observing luciferase activity. […] The effect of NC3 and NC4 on PSA levels in the LN/AR cell line was studied by administering various compounds at concentrations ranging from 1.25 to 10 μmol and observing luciferase activity.

1AR cell line = test: Luciferase activity in the 1AR cell line; format: cell-based; conditions: 1.25 to 10 μmol
Text: as §1

For `Cc1ccc(N2C(=S)N(c3ccc(C#N)c(C(F)(F)F)c3)C(=O)C23CCC3)cc1` [NC7, 4-(8-oxo-6-thioxo-5-(4-methylphenyl)-5,7-diazaspiro[3.4]oct-7-yl)-2-trifluoromethylbenzonitrile], which growth effect (3T3) is on record?
The growth effect was “no growth effect”.

What about the “pharmacokinetic behavior, residence time in blood” value [1] of the same compound?
The value was “metabolize fast”.

What about the growth effect (MCF7) of the same compound?
The growth effect was “no growth effect”.

What about the “agonistic activity on secreted PSA” value (AR [2]) of the same compound?
Its value is “no agonistic activities”.

And the “IC50 (comparison)” value (AR [3])?
The value was “much lower than the IC50 for bicalutamide”.

What about the growth effect (SkBr3) of the same compound?
Its growth effect is “no growth effect”.

And the “rank by relative PSA level, most active to least active” value (AR [4]; 500 nM)?
Its value is “NC50>NC48>NC7>NC43>NC44>NC49>NC50>NC45>bicalutamide”.

And the “decrease in PSA level of LNCaP-AR cells (comparison)” value (AR [4]; 1000 nM)?
The value was “greater decrease in PSA level of LNCaP-AR cells than NC43, NC44, and NC50”.

What about the “agonistic activity on AR response reporter” value (AR [5]) of the same compound?
Its value is “no agonistic activity”.

And the growth inhibitory effect (DU-145 cells)?
The growth inhibitory effect was “no growth inhibitory effect”.

What about the “effect on GR response reporter” value [6] of the same compound?
Its value is “no effect on GR”.

Which results are given for `CC(O)(CS(=O)(=O)c1ccc(F)cc1)C(=O)Nc1ccc(C#N)c(C(F)(F)F)c1` (stereo not drawn) [Bicalutamide, N-[4-cyano-3-(trifluoromethyl)phenyl]-3-[(4-fluorophenyl)sulfonyl]-2-hydroxy-2-methylpropanamide, reference compound]?
rate of tumor growth (tumor volume) ([7]; 10 mg/kg per day, FIG. 6): slower than mice treated with vehicle solution; PSA levels ([7]; FIG. 16, relative to vehicle solution): stayed the same or increased; urogenital tract weight and photon emission (urogenital tract): decrease in weight and photon emission; growth and PSA expression [8]: did not inhibit growth and PSA expression; photon emission associated with luciferase activity ([9]; FIG. 8, day 18, relative to vehicle): remained about the same or increased; tumor growth / tumor volume ([9]; oral once daily, FIG. 7: 10 or 50 mg/kg, 18 days): did not inhibit growth; also recorded: tumors continued to grow; logP (LogP): 2.91

Which results are given for `CC1(C)C(=O)N(c2ccc(C#N)c(C(F)(F)F)c2)C(=S)N1c1ccc(O)cc1` [NC3, 4-[3-(4-hydroxyphenyl)-4,4-dimethyl-5-oxo-2-thioxoimidazolidin-1-yl]-2-trifluoromethylbenzonitrile]?
luciferase activity (comparison) (4AR cell line): less than the luciferase activity upon exposure to NC4; luciferase activity (comparison) (1AR cell line): less than the luciferase activity upon exposure to NC4; PSA level (comparison) (AR [4]; LN/AR cell line, 1.25 to 10 μmol): less than the PSA level upon exposure to NC4
